Assay results reported in patent US9872495B2, “Peptoid oligomers, pharmaceutical compositions and methods of using the same” (priority 2009, dated 2018).
≈ marks a conversion by molar mass, not a printed value. Square brackets hold non-standard residues; d marks the D form. Peptide text beside a SMILES is read from it. Gly(N-(CH2)6NH2) = NCCCCCCNCC(=O)O; Gly(N(CH2)3NH2) = NCCCNCC(=O)O; NhArg = N=C(N)NCCCCNCC(=O)O; N(iPr)Gly = CC(C)NCC(=O)O; Nphe = O=C(O)CNCc1ccccc1; Nleu = CC(C)CNCC(=O)O

Assays:
Type in all cases: cell-based
[1] = tested on: Bacillus subtilis ATCC 6633; conditions: ATCC 6633
Procedure: (§1) Antimicrobial activity was tested against the gram-negative strain Escherichia coli ATCC 25922, and […] strains Staphylococcus aureus ATCC 25923, and Bacillus subtilis ATCC 6633, according to the guidelines given in the document […]-A7 of the CLSI (Clinical and Laboratory Standards Institute; Clinical and Laboratory Standards Institute. Methods for Dilution Antimicrobial Susceptibility Tests for Bacteria That Grow Aerobically-Seventh Edition: Approved Standard CLSI document […]-A7. CLSI, Wayne, USA, 2006). This reference is incorporated herein in its entirety. Hemolytic activity was tested against fresh human erythrocytes.

[2] = tested on: Escherichia coli ATCC 25922; conditions: ATCC 25922
Procedure: as §1

[3] = tested on: Staphylococcus aureus ATCC 25923; conditions: ATCC 25923
Procedure: as §1

fresh human erythrocytes = experiment: Hemolytic activity; conditions: red cells of human
Procedure: Typically, toxicity is evaluated by hemolytic concentration50 (HC50), which measures the concentration of antimicrobial agents at which 50% of the erythrocytes in the culture are lysed. Significant hemolysis, as evaluated by HC50, was detectable only for peptide gramicidin S (40 μg/mL). […] In order to test hemolytic activity of peptoid oligomers further, more stringent parameters were used. Instead of HC50, hemolytic concentration10 (HC10) was used to evaluate hemolytic activity of peptoids used in this study. HC10 represents the concentration of antimicrobial agents where 10% of erythrocytes are lysed. HC10 values were detectable for only four peptoid oligomers. […] Antimicrobial activity was tested against the gram-negative strain Escherichia coli ATCC 25922, and […] strains Staphylococcus aureus ATCC 25923, and Bacillus subtilis ATCC 6633, according to the guidelines given in the document […]-A7 of the CLSI (Clinical and Laboratory Standards Institute; Clinical and Laboratory Standards Institute. Methods for Dilution Antimicrobial Susceptibility Tests for Bacteria That Grow Aerobically-Seventh Edition: Approved Standard CLSI document […]-A7. CLSI, Wayne, USA, 2006). This reference is incorporated herein in its entirety. Hemolytic activity was tested against fresh human erythrocytes.

Row | MIC B. sub [1] [µg/mL] | MIC E. coli [2] [µg/mL] | MIC S. aureus [3] [µg/mL] | SMILES | HC10 (concentration where 10% hemolysis is observed) (fresh human erythrocytes) [µg/mL] | HC50 (concentration where 50% hemolysis is observed) (fresh human erythrocytes) [µg/mL]
1 | >500 | >500 | >500 | CC(=O)N(CCCN)CC(=O)N(CC(=O)N(CCCN)CC(=O)N(CC(=O)N(CCCN)CC(=O)N(CCCN)CC(N)=O)Cc1ccccc1)Cc1ccccc1 [Compound 6, Ac(NapNpm)2Nap2] (Ac-[Gly(N(CH2)3NH2)][Nphe][Gly(N(CH2)3NH2)][Nphe][Gly(N(CH2)3NH2)][Gly(N(CH2)3NH2)]-NH2) | >250 | >250
2 | 125 (≈ 148 µM) | 125 (≈ 148 µM) | 250 (≈ 297 µM) | CC(=O)N(CCCN)CC(=O)N(CC(=O)N(CCCN)CC(=O)N(CC(=O)N(CCCN)CC(=O)N(CC(N)=O)Cc1ccccc1)Cc1ccccc1)Cc1ccccc1 [Compound 7, Ac(NapNpm)3] (Ac-[Gly(N(CH2)3NH2)][Nphe][Gly(N(CH2)3NH2)][Nphe][Gly(N(CH2)3NH2)][Nphe]-NH2) | >250 | >250
3 | 31.3 (≈ 28.3 µM) | 250 (≈ 226 µM) | 250 (≈ 226 µM) | CC(=O)N(CCCN)CC(=O)N(CC(=O)N(CCCN)CC(=O)N(CC(=O)N(CCCN)CC(=O)N(CC(=O)N(CCCN)CC(=O)N(CC(N)=O)Cc1ccccc1)Cc1ccccc1)Cc1ccccc1)Cc1ccccc1 [Compound 8, Ac(NapNpm)4] (Ac-[Gly(N(CH2)3NH2)][Nphe][Gly(N(CH2)3NH2)][Nphe][Gly(N(CH2)3NH2)][Nphe][Gly(N(CH2)3NH2)][Nphe]-NH2) | >250 | >250

Second part, the compound before the results:

Row | SMILES | MIC B. sub [1] [µg/mL] | MIC E. coli [2] [µg/mL] | MIC S. aureus [3] [µg/mL] | HC10 (concentration where 10% hemolysis is observed) (fresh human erythrocytes) [µg/mL] | HC50 (concentration where 50% hemolysis is observed) (fresh human erythrocytes) [µg/mL]
4 | CC(=O)N(CCCCNC(=N)N)CC(=O)N(CC(=O)N(CCCCNC(=N)N)CC(=O)N(CC(=O)N(CCCCNC(=N)N)CC(=O)N(CC(N)=O)Cc1ccccc1)Cc1ccccc1)Cc1ccccc1 [Compound 2, Ac(NgbNpm)3] (Ac-[NhArg][Nphe][NhArg][Nphe][NhArg][Nphe]-NH2) | 62.5 (≈ 61.8 µM) | 250 (≈ 247 µM) | 125 (≈ 124 µM) | >250 | >250
5 | CC(=O)N(CCCCCCN)CC(=O)N(CC(=O)N(CCCCCCN)CC(=O)N(CC(=O)N(CCCCCCN)CC(=O)N(CC(N)=O)Cc1ccccc1)Cc1ccccc1)Cc1ccccc1 [Compound 3, Ac(NahNpm)3] (Ac-[Gly(N-(CH2)6NH2)][Nphe][Gly(N-(CH2)6NH2)][Nphe][Gly(N-(CH2)6NH2)][Nphe]-NH2) | >500 | >500 | >500 | >250 | >250
6 | CC(=O)N(CCCN)CC(=O)N(CC(=O)N(CCCN)CC(=O)N(CC(=O)N(CCCN)CC(=O)N(CC(N)=O)Cc1ccc2ccccc2c1)Cc1ccc2ccccc2c1)Cc1ccc2ccccc2c1 [Compound 5, Ac(NapNnm)3] | 2 (≈ 2.01 µM) | 62.5 (≈ 62.9 µM) | 125 (≈ 126 µM) | >250 | >250
7 | CC(C)CN1CC(=O)N(CCCN)CC(=O)N(C(C)C)CC(=O)N2CCC[C@H]2C(=O)N(Cc2ccccc2)CC(=O)N(CC(C)C)CC(=O)N(CCCN)CC(=O)N(C(C)C)CC(=O)N2CCC[C@H]2C(=O)N(Cc2ccccc2)CC1=O [Compound 29, C(NpmNibNapNipPro)2] (cyclo([Nleu][Gly(N(CH2)3NH2)][N(iPr)Gly]P[Nphe][Nleu][Gly(N(CH2)3NH2)][N(iPr)Gly]P[Nphe])) |  |  |  | >250 | >250
